{
  "source": "patent US6852696B2",
  "about": "“Inhibitors of glycosaminoglycans” (The University of Texas System, priority 1999, dated 2005)",
  "key": {"DO11.10 T cells": {"test_system": "DO11.10 T cells", "assay": "DO11.10 T cell proliferation triggered by splenic DC and OVA peptide (3H-thymidine uptake)", "format": "cell-based, mice", "procedure": "FIGS. 7A-C. Impact of tetrameric LIP on cytokine production during antigen presentation. (FIG. 7A) XS52 DC (0.2×10^6 cells/well) were cultured in the presence or absence of the KLH-reactive CD4^+ Thl clone HDK-1 (0.2×10^6 cells/well) and/or KLH (100 μg/ml). Culture supernatants collected at 24 hrs were examined for the indicated cytokines by ELISA. Data shown are the means+/−s.e.m. from triplicate samples. (FIG. 7B) XS52 DC and HDK-1 T cells were co-cultured with KLH in the presence of the indicated concentrations of Pep-1. Culture supernatants collected at 24 hrs were examined for the indicated cytokines by ELISA. (FIG. 7C) CD4^+ T cells isolated from DO11.10 transgenic mice (5×10^4 cells/well) were co-cultured with the indicated numbers of splenic DC isolated from BALB/c mice and the OVA peptide (2 μg/ml) in the presence of 500 μg/ml of Pep-1 (open circles), RP (triangles), or DMSO alone (closed circles). Co-cultures of CD4^+ T cells and DC in the absence of OVA peptide served as a control (square). All the cultures were examined for ^3H-thymidine uptake on Day 3. […]\nFIGS. 9A-G. DC-associated HA and DC-dependent T cell proliferation. […] Statistically significant differences assessed by a two-tailed Student's t-test for comparing two groups or by analysis of variance (ANOVA) followed by LSD for multiple comparisons are indicated by asterisks (*P<0.05, **P<0.01). […]"}, "[1]": {"test_system": "XS52 DC and HDK-1 T cells", "assay": "Cytokine secretion in XS52 DC / HDK-1 T cell / KLH co-culture (ELISA)", "format": "cell-based", "details": "500 μg/ml; dose-dependent", "procedure": "FIGS. 7A-C. Impact of tetrameric LIP on cytokine production during antigen presentation. (FIG. 7A) XS52 DC (0.2×10^6 cells/well) were cultured in the presence or absence of the KLH-reactive CD4^+ Thl clone HDK-1 (0.2×10^6 cells/well) and/or KLH (100 μg/ml). Culture supernatants collected at 24 hrs were examined for the indicated cytokines by ELISA. Data shown are the means+/−s.e.m. from triplicate samples. (FIG. 7B) XS52 DC and HDK-1 T cells were co-cultured with KLH in the presence of the indicated concentrations of Pep-1. Culture supernatants collected at 24 hrs were examined for the indicated cytokines by ELISA. (FIG. 7C) CD4^+ T cells isolated from DO11.10 transgenic mice (5×10^4 cells/well) were co-cultured with the indicated numbers of splenic DC isolated from BALB/c mice and the OVA peptide (2 μg/ml) in the presence of 500 μg/ml of Pep-1 (open circles), RP (triangles), or DMSO alone (closed circles). Co-cultures of CD4^+ T cells and DC in the absence of OVA peptide served as a control (square). All the cultures were examined for ^3H-thymidine uptake on Day 3. Data shown are the means+/−s.d. from triplicate samples.\nDuring antigen-specific interaction DC delivers activation signals to T cells, leading to differentiation and clonal expansion of antigen-reactive T cells. At the same time, T cells deliver signals back to DC, leading to “terminal maturation” of DC^80. To test the potential impact of Pep-1 on this bi-directional DC-T cell interaction, the present inventors employed a fully characterized in vitro experimental system in which XS52 DC are cultured with a KLH-reactive CD4^+ Th1 clone HDK-1 in the presence of antigen (KLH)^81-85."}, "[2]": {"test_system": "HAase (from bovine testis)", "assay": "HAase-mediated degradation of immobilized biotinylated HA", "format": "biochemical", "details": "500 μg/ml pretreatment", "procedure": "FIGS. 5A-C. Impact of Pep-1 on HA degradation products. (FIG. 5A) 96 well plates were coated with biotinylated-HA (0.1 μg/ml) and pretreated with 500 μg/ml of Pep-1 (open circles), RP (closed circles), or PBS alone (triangles) for 3 hours. These plates were then incubated for 30 min in the presence of HAase (from bovine testis). After extensive wash, the amounts of remaining biotinylated HA on the plates were determined by addition of streptavidin-alkaline phosphatase followed by p-nitrophenyl phosphate substrate. The % HA digestion was calculated from the optical densities. The data shown are the means+/−s.e.m.from triplicate samples analyzed with a hyperbolic model. (FIG. 5B) The impact of Pep-1 on HA digestion and on cell adhesion was examined in parallel using the HA-coated plates prepared simultaneously. Pep-1, RP, or PBS alone was added to the HA-coated plates as above and their effects on HAase-mediated HA degradation and on the adhesion of ^35S-labeled BW5147 thymoma cells were compared. […] Results are expressed as the means+/−s.e.m.from triplicate samples.\nTo test the impact of Pep-1 on HA degradation, the present inventors developed a 96 well-based assay in which biotinylated HA was immobilized onto the plates and treated with HAase. The amounts of HA that remained attached to the wells was then determined by addition of streptavidin-conjugated alkaline phosphatase (FIG. 5A)."}},
  "data": [
    {"sequence": "GAHWQFNALTVR [Pep-1]", "values": [
      {"measurement": "inhibition of DC-dependent, antigen-specific T cell proliferation", "setting": "DO11.10 T cells; 300 μM (FIG. 9B)", "value": "inhibited"},
      {"measurement": "inhibition of activation of naive CD4+ T cells by splenic DC", "setting": "DO11.10 T cells; 500 μg/ml (FIG. 7C)", "value": "inhibited the activation of immunologically naive CD4+ T cells"},
      {"measurement": "inhibition of IL-6 secretion", "setting": "[1]", "value": "almost complete inhibition"},
      {"measurement": "inhibition of TNFα secretion", "setting": "[1]", "value": "almost complete inhibition"},
      {"measurement": "inhibition of interferon-γ secretion", "setting": "[1]", "value": "almost complete inhibition"},
      {"measurement": "effect on HAase-mediated HA degradation", "setting": "[2]", "value": "failed to affect the degradation of HA substrates"}
    ]}
  ]
}
